Laboratory results: US12594319B2, “Pharmaceutical development” (HELPERBY THERAPEUTICS LIMITED, priority 2019, dated 2026)
Several values for one entry are separate records, joined by “and”; a condition that tells them apart may be missing. Identical values can stand only once.

Tests used:
[1] = RP-HPLC for related substances of zidovudine (Ph. Eur. 9.5) after lyophilisation; type: physicochemical; settings: aqueous lyo solution
Method: RP-HPLC chromatography for quantity and purity of zidovudine was performed according to monograph Ph. Eur. 9.5 (January 2017:1059). The following chromatographic conditions were used for the analysis.
• XTerra RP18 VanGuard cartridge, 3.9×5 mm, 5 μm Mobile phase A 2 g/L ammonium acetate, pH 6.8 Mobile phase B Acetonitrile
Mobile phase A was prepared by dissolving 2 g ammonium acetate in 800 mL of purified water, pH was adjusted to 6.8 with acetic acid. The solution was made up to 1 L with purified water.
Diluent was prepared by mixing 76 mL mobile phase A with 4 mL of ACN and 20 mL methanol.
Reference solution A: 2 mg of impurity C and 2 mg of impurity B were dissolved in 50 mL diluent. 1 mL of this solution was diluted with 19 mL diluent.

[2] = buffered aqueous system
Method: A two component buffer system consisting of acetate and phosphate (5 mM acetate and 5 mM phosphate) was used to cover a pH range of about 4.5 to 7.5. After complete dissolution of the solid, the pH was adjusted to the desired pH value using hydrochloric acid.

[3] = aqueous solutions; Wallace et al. 2010; cited from earlier work
[4] = system: sensitive micro-organisms; settings: cited from earlier work; for Potency: general value of the art
[5] = Solubility screening in organic solvent system (tert-butanol/water)
Method: Substances were dissolved in an appropriate volume to justify the use of an organic solvent based system (reduction of the fill volume per vial by a factor of 4, ˜5 mL fill volume in organic solvent based systems). Samples were tested for stability of the APIs in solution when stored for 24 h at 2 to 8° C. and 25° C. […] The chromatographic conditions were the same as set out above for Example 1A.

[6] = Determination of free colistin (turbidity) according to European Pharmacopeia 9.5; type: physicochemical; settings: free colistin assay
Method: Determination of free colistin was performed according to European Pharmacopeia 9.5 (July 2017:0319).
1.0 g of hydrazine sulfate was dissolved in purified water, diluted to 100.0 mL with the same solvent and allowed to stand for 4-6 h.
2.5 g of hexamethylene tetramine was dissolved in 25.0 mL purified water in a 100 mL glass-stoppered volumetric flask.
25.0 mL hydrazine sulfate solution was added to the hexamethylene tetramine solution in the volumetric flask, mixed and allowed to stand for 24 h.
15.0 mL of the primary opalescent suspension was diluted to 1000.0 mL with purified water. This suspension was freshly prepared and stored for a maximum of 24 h.
Reference suspensions according to Table 6 were prepared for calibration of the turbidity meter.
One lyophilisate containing 240 mg CMS was dissolved in 10 mL purified water. CMS BDS was analyzed by dissolving 80 mg of CMS BDS in 3 mL purified water. After complete dissolution, 0.1 mL […] silicotungstic acid was added to 3 mL of the test sample (either reconstituted lyophilisate or dissolved BDS). The turbidity of the sample was recorded after 10 s-20 s.
Determination of free colistin was performed according to European Pharmacopeia 9.5 (July 2017:0319). The hydrazine sulfate solution, hexamethylene tetramine solution, primary opalescent suspension, standard of opalescence, and reference suspensions were prepared as in Example 2. […]

Compound: Cc1cn([C@H]2C[C@H](N=[N+]=[N-])[C@@H](CO)O2)c(=O)[nH]c1=O [Zidovudine]
- Stability of zidovudine during the lyophilisation process [1]: stable during the lyophilisation process

Compound: colistimethate sodium [CMS]
- Effect on pH of the solution / buffer capacity [2]: strong buffer capacity at neutral to slightly basic pH values
- Concentration in aqueous solution above which CMS is stable against hydrolysis due to the formation of micelles [3]: above 3.5 mM and ~5.7 mg/mL
- Potency [4]: around 12,500 IU/mg
- Solubility in TBA/water, all TBA concentrations [5]: soluble in all TBA concentrations
- Dissolution time in TBA/water ([5]; 20% to 60% (w/w) TBA, 5 mL): within a few minutes
- Acceptance criteria/not more turbid than standard of opalescence II ([6]; Table 8 (Example 2)): yes
- Turbidity ([6]; Table 8, organic solvent system lyophilisation (Example 2)): 5.5 NTU

Compound: polymyxin B
- International Units equivalent to 1 mg ([4]; generally accepted in the art): approximately 10,000 IU

Compound: colistin sulfate
- Potency [4]: around 20,500 IU/mg
